Laboratory results published in the supplement of paper PMC5303821, “Major sulfonate transporter Soa1 in Saccharomyces cerevisiae and considerable substrate diversity in its fungal family” (Nature Communications, 2017).

What was measured:
[1] = test system: Saccharomyces eubayanus_SOA2; assay: lag phase before growth; higher = slower start of growth; conditions: sulfur source concentration 200 µM; S. cerevisiae S288C/BY sul1Δ sul2Δ soa1Δ with transporter ortholog inserted at SOA1 locus; sulfur-free B medium, 4% glucose, pH 6.5, sole sulfur source
[2] = test system: Aspergillus nidulans_CBF74694; assay: maximal culture density with compound as sole sulfur source (OD600); higher = better growth; conditions: S. cerevisiae S288C/BY sul1Δ sul2Δ soa1Δ with transporter ortholog inserted at SOA1 locus, sulfur-free B medium, 4% glucose, pH 6.5, sole sulfur source
[3] = test system: Aspergillus nidulans_CBF80346; assay: as above; conditions: S. cerevisiae S288C/BY sul1Δ sul2Δ soa1Δ with transporter ortholog inserted at SOA1 locus, sulfur-free B medium, 4% glucose, pH 6.5, sole sulfur source
[4] = test system: Aspergillus nidulans_XP_660563; assay: as above; conditions: S. cerevisiae S288C/BY sul1Δ sul2Δ soa1Δ with transporter ortholog inserted at SOA1 locus, sulfur-free B medium, 4% glucose, pH 6.5, sole sulfur source
[5] = test system: Aspergillus nidulans_XP_660670; assay: as above; conditions: S. cerevisiae S288C/BY sul1Δ sul2Δ soa1Δ with transporter ortholog inserted at SOA1 locus, sulfur-free B medium, 4% glucose, pH 6.5, sole sulfur source
[6] = test system: Aspergillus nidulans_XP_681611; assay: as above; conditions: S. cerevisiae S288C/BY sul1Δ sul2Δ soa1Δ with transporter ortholog inserted at SOA1 locus, sulfur-free B medium, 4% glucose, pH 6.5, sole sulfur source
[7] = test system: Fusarium oxysporum_ENH65823; assay: as above; conditions: sulfur source concentration 200 µM; S. cerevisiae S288C/BY sul1Δ sul2Δ soa1Δ with transporter ortholog inserted at SOA1 locus; sulfur-free B medium, 4% glucose, pH 6.5, sole sulfur source
[8] = test system: Metarhizium robertsii_XP_007821441; assay: as above; conditions: S. cerevisiae S288C/BY sul1Δ sul2Δ soa1Δ with transporter ortholog inserted at SOA1 locus, sulfur-free B medium, 4% glucose, pH 6.5, sole sulfur source
[9] = test system: Metarhizium robertsii_XP_007823832; assay: as above; conditions: S. cerevisiae S288C/BY sul1Δ sul2Δ soa1Δ with transporter ortholog inserted at SOA1 locus, sulfur-free B medium, 4% glucose, pH 6.5, sole sulfur source
[10] = test system: Ogataea parapolymorpha_XP_013932458; assay: as above; conditions: S. cerevisiae S288C/BY sul1Δ sul2Δ soa1Δ with transporter ortholog inserted at SOA1 locus, sulfur-free B medium, 4% glucose, pH 6.5, sole sulfur source
[11] = test system: Ogataea parapolymorpha_XP_013936897; assay: as above; conditions: S. cerevisiae S288C/BY sul1Δ sul2Δ soa1Δ with transporter ortholog inserted at SOA1 locus, sulfur-free B medium, 4% glucose, pH 6.5, sole sulfur source
[12] = test system: Saccharomyces eubayanus_SOA1; assay: as above; conditions: S. cerevisiae S288C/BY sul1Δ sul2Δ soa1Δ with transporter ortholog inserted at SOA1 locus, sulfur-free B medium, 4% glucose, pH 6.5, sole sulfur source
[13] = test system: Saccharomyces eubayanus_SOA2; assay: as above; conditions: S. cerevisiae S288C/BY sul1Δ sul2Δ soa1Δ with transporter ortholog inserted at SOA1 locus, sulfur-free B medium, 4% glucose, pH 6.5, sole sulfur source
[14] = test system: soa1 del; assay: as above; conditions: S. cerevisiae S288C/BY sul1Δ sul2Δ soa1Δ with transporter ortholog inserted at SOA1 locus, sulfur-free B medium, 4% glucose, pH 6.5, sole sulfur source
[15] = test system: Aspergillus nidulans (IAM 2006)_astA; assay: lag phase before growth; higher = slower start of growth; conditions: S. cerevisiae S288C/BY sul1Δ sul2Δ soa1Δ with transporter ortholog inserted at SOA1 locus, sulfur-free B medium, 4% glucose, pH 6.5, sole sulfur source
[16] = test system: Metarhizium robertsii_XP_007823832; assay: as above; conditions: S. cerevisiae S288C/BY sul1Δ sul2Δ soa1Δ with transporter ortholog inserted at SOA1 locus, sulfur-free B medium, 4% glucose, pH 6.5, sole sulfur source
[17] = test system: Aspergillus nidulans_XP_661711; assay: as above; conditions: sulfur source concentration 200 µM; S. cerevisiae S288C/BY sul1Δ sul2Δ soa1Δ with transporter ortholog inserted at SOA1 locus; sulfur-free B medium, 4% glucose, pH 6.5, sole sulfur source
[18] = test system: Aspergillus nidulans_XP_661733; assay: as above; conditions: S. cerevisiae S288C/BY sul1Δ sul2Δ soa1Δ with transporter ortholog inserted at SOA1 locus, sulfur-free B medium, 4% glucose, pH 6.5, sole sulfur source
[19] = test system: Fusarium oxysporum_ENH65823; assay: as above; conditions: sulfur source concentration 200 µM; S. cerevisiae S288C/BY sul1Δ sul2Δ soa1Δ with transporter ortholog inserted at SOA1 locus; sulfur-free B medium, 4% glucose, pH 6.5, sole sulfur source
[20] = test system: Aspergillus nidulans_CBF74694; assay: as above; conditions: sulfur source concentration 200 µM; S. cerevisiae S288C/BY sul1Δ sul2Δ soa1Δ with transporter ortholog inserted at SOA1 locus; sulfur-free B medium, 4% glucose, pH 6.5, sole sulfur source
[21] = test system: Aspergillus nidulans_CBF80346; assay: as above; conditions: sulfur source concentration 200 µM; S. cerevisiae S288C/BY sul1Δ sul2Δ soa1Δ with transporter ortholog inserted at SOA1 locus; sulfur-free B medium, 4% glucose, pH 6.5, sole sulfur source
[22] = test system: Aspergillus nidulans_XP_660563; assay: as above; conditions: sulfur source concentration 200 µM; S. cerevisiae S288C/BY sul1Δ sul2Δ soa1Δ with transporter ortholog inserted at SOA1 locus; sulfur-free B medium, 4% glucose, pH 6.5, sole sulfur source
[23] = test system: Aspergillus nidulans_XP_660670; assay: as above; conditions: sulfur source concentration 200 µM; S. cerevisiae S288C/BY sul1Δ sul2Δ soa1Δ with transporter ortholog inserted at SOA1 locus; sulfur-free B medium, 4% glucose, pH 6.5, sole sulfur source
[24] = test system: Aspergillus nidulans_XP_681611; assay: as above; conditions: sulfur source concentration 200 µM; S. cerevisiae S288C/BY sul1Δ sul2Δ soa1Δ with transporter ortholog inserted at SOA1 locus; sulfur-free B medium, 4% glucose, pH 6.5, sole sulfur source
[25] = test system: Metarhizium robertsii_XP_007821441; assay: as above; conditions: sulfur source concentration 200 µM; S. cerevisiae S288C/BY sul1Δ sul2Δ soa1Δ with transporter ortholog inserted at SOA1 locus; sulfur-free B medium, 4% glucose, pH 6.5, sole sulfur source
[26] = test system: Ogataea parapolymorpha_XP_013932458; assay: as above; conditions: sulfur source concentration 200 µM; S. cerevisiae S288C/BY sul1Δ sul2Δ soa1Δ with transporter ortholog inserted at SOA1 locus; sulfur-free B medium, 4% glucose, pH 6.5, sole sulfur source
[27] = test system: Ogataea parapolymorpha_XP_013936897; assay: as above; conditions: sulfur source concentration 200 µM; S. cerevisiae S288C/BY sul1Δ sul2Δ soa1Δ with transporter ortholog inserted at SOA1 locus; sulfur-free B medium, 4% glucose, pH 6.5, sole sulfur source
[28] = test system: soa1 del; assay: as above; conditions: sulfur source concentration 200 µM; S. cerevisiae S288C/BY sul1Δ sul2Δ soa1Δ with transporter ortholog inserted at SOA1 locus; sulfur-free B medium, 4% glucose, pH 6.5, sole sulfur source
[29] = sulfur source concentration 200 µM
[30] = sulfur source concentration 40000 µM

| SMILES | lag phase before growth [1] | maximal culture density [2, 29] | maximal culture density [3, 29] | maximal culture density [4, 29] | maximal culture density [5, 29] | maximal culture density [6, 29] | maximal culture density [7] | maximal culture density [8, 29] | maximal culture density [9, 29] | maximal culture density [10, 29] | maximal culture density [11, 29] | maximal culture density [12, 29] | maximal culture density [13, 29] | maximal culture density [14, 29] | lag phase before growth [15, 29] | lag phase before growth [16, 29] | other results |
| --- | --- | --- | --- | --- | --- | --- | --- | --- | --- | --- | --- | --- | --- | --- | --- | --- | --- |
| CCCCS(=O)(=O)O [Butanesulfonate] | 10.1 h | 0.2 | 0.26 | 0.355 | 0.267 | 0.368 | 0.241 | 0.246 | 0.604 | 0.274 | 0.323 | 1.57 | 1.69 | 0.247 | – | – | – |
| CCS(=O)(=O)O [Ethanesulfonate] | 13.1 h | 0.182 | 0.22 | 0.314 | 0.209 | 0.319 | 0.197 | 0.214 | 0.494 | 0.237 | 0.296 | 1.58 | 1.75 | 0.215 | – | – | – |
| O=S(=O)(O)CO [Hydroxymethane sulfonate] | 23.8 h | 0.203 | 0.208 | 0.318 | 0.207 | 0.322 | 0.195 | 1.04 | 1.5 | 0.234 | 0.303 | 1.59 | 1.66 | 0.212 | 0.457 h | 4.31 h | – |
| N[C@@H](CS(=O)(=O)O)C(=O)O [L-cysteic acid] | – | 0.451 | 0.823 | 0.535 | 1.13 | 0.861 | 1.16 | 0.3 | 1.43 | 0.331 | 0.391 | 0.561 | 0.254 | 0.254 | – | 7.57 h | lag phase before growth [17]: 5.14 h; lag phase before growth [18, 29]: 17.2 h; lag phase before growth [19]: 7.6 h |
| CSCC[C@H](N)C(=O)O [Methionine] | 4.47 h | 1.57 | 1.58 | 1.6 | 1.6 | 1.64 | 1.59 | 1.59 | 1.58 | 1.56 | 1.57 | 1.55 | 1.63 | 1.69 | 5.14 h | 4.38 h | lag phase before growth [20]: 5.36 h; lag phase before growth [21]: 5.16 h; lag phase before growth [22]: 3.48 h; lag phase before growth [23]: 4.47 h; lag phase before growth [17]: 4.47 h; lag phase before growth [18, 29]: 4.49 h; lag phase before growth [24]: 3.6 h; lag phase before growth [19]: 5.35 h; lag phase before growth [25]: 4.5 h; lag phase before growth [26]: 3.88 h; lag phase before growth [27]: 2.97 h; lag phase before growth [28]: 4.14 h |
| CCCS(=O)(=O)O [Propanesulfonate] | 14 h | 0.192 | 0.212 | 0.327 | 0.231 | 0.35 | 0.232 | 0.263 | 0.507 | 0.243 | 0.296 | 1.56 | 1.7 | 0.212 | – | – | – |
| O=S(=O)(O)O [sulfate] | – | 0.184 | 0.243 | 0.31 | 0.223 | 0.294 | 0.233 | 0.215 | 1.57 | 0.281 | 0.294 | 0.251 | 0.201 | 0.212 | 6.92 h | 8.36 h | lag phase before growth [15, 30]: 7.29 h; lag phase before growth [18, 30]: 39.2 h; lag phase before growth [16, 30]: 11.7 h; maximal culture density [2, 30]: 0.208; maximal culture density [3, 30]: 0.216; maximal culture density [4, 30]: 0.315; maximal culture density [5, 30]: 0.277; maximal culture density [6, 30]: 0.301; maximal culture density [8, 30]: 0.225; maximal culture density [9, 30]: 1.63; maximal culture density [10, 30]: 0.343; maximal culture density [11, 30]: 0.301; maximal culture density [12, 30]: 1.62; maximal culture density [13, 30]: 0.21; maximal culture density [14, 30]: 0.222 |
| O=S(O)O [sulfite] | – | 0.196 | 0.262 | 0.322 | 0.243 | 0.308 | 0.256 | 0.235 | 1.56 | 0.285 | 0.284 | 1.58 | 0.645 | 0.222 | 6.93 h | 8.25 h | – |
